The source of these data is US20250282827A1, “LIPIDATED POLYMYXIN ANALOGUES” (priority 2021, published 2025).

Structures are written as SMILES. Values after ≈ are worked out from the molar mass of the structure shown. Positions of bridges follow the written chain, without caps; N, C: chain ends. Non-standard residues stand in square brackets, D forms with d. Residues, ends and D or L forms follow the SMILES beside them. *: point of attachment. CH2CH2OBz(4-tBu) = CC(C)(C)c1ccc(C(=O)OCC*)cc1; Ethyl(2-decanoyloxy) = CCCCCCCCCC(=O)OCC*; Ethyl(2-butanoyloxy) = CCCC(=O)OCC*; Dab = NCC[C@H](N)C(=O)O; X10 = CCC(C)CC(=O)OCC*; X2 = O=C(OCC*)C1CCCCC1; X13 = CCCCC(=O)OCC* Some results are limits rather than exact numbers.

One assay has as its system E. coli ATCC MS8345. The assay is classed as cell-based, Escherichia coli. The settings on record: ATCC MS8345. The text has this: (§1) All 81 compounds prepared in Examples 2 and 3 underwent screening against a panel of Gram-negative bacterium to assess their ability to inhibit bacterial growth. […] The median value is presented.
Expansion of the polymyxin macrocycle by substituting […]) offered little advantage in antimicrobial activity but was generally well tolerated although for A. baumanni and P. aeruginosa this was detrimental.

In another assay the test system is E. coli ATCC 25922. Type of assay: cell-based, Escherichia coli. The settings on record: ATCC 25922.
Excerpt: as §1

Another assay has as its system A. baumannii ATCC 19606. Type of assay: cell-based, Acinetobacter baumannii. As to conditions: ATCC 19606.
Excerpt: as §1

The subject of assay [1] is K. pneumoniae ATCC 700603. The assay is classed as cell-based, Klebsiella pneumoniae. As to conditions: ATCC 700603.
Excerpt: as §1

The test system of assay [2] is K. pneumoniae ATCC MS6671. Type of assay: cell-based, Klebsiella pneumoniae. As to conditions: ATCC MS6671.
Excerpt: as §1

A further assay deals with K. pneumoniae ATCC 33495. The assay is classed as cell-based, Klebsiella pneumoniae. The settings on record: ATCC 33495.
Excerpt: as §1

The next assay concerns P. aeruginosa ATCC 27853. Type of assay: cell-based, Pseudomonas aeruginosa. As to conditions: ATCC 27853.
Excerpt: as §1

For `CC(C)C[C@@H]1NC(=O)[C@@H](Cc2ccccc2)NC(=O)[C@H](CCN)NC(=O)[C@@H](NC(=O)[C@H](CCN)NC(=O)[C@@H](NC(=O)[C@H](N)CSCCOC(=O)C2CCCCC2)[C@@H](C)O)CCNC(=O)[C@H]([C@@H](C)O)NC(=O)[C@H](CCN)NC(=O)[C@H](CCN)NC1=O` [Compound 103] (H-[dC](X2)T[Dab][Dab][Dab][dF]L[Dab][Dab]T; lactam 4-C), in the assay on E. coli ATCC MS8345, the “MIC E. coli ATCC MS8345” value was 16 µg/mL (≈ 13.1 µM). Besides, the “MIC E. coli ATCC 25922” value with E. coli ATCC 25922 came out at 2 µg/mL (≈ 1.64 µM). Moreover, the “MIC A. baumannii ATCC 19606” value against A. baumannii ATCC 19606 is 4 µg/mL (≈ 3.28 µM). In addition, the “MIC K. pneumoniae ATCC 700603” value in assay [1] worked out at 2 µg/mL (≈ 1.64 µM). In addition, the “MIC K. pneumoniae ATCC MS6671” value in assay [2] was above 32 µg/mL. For the same compound, in the assay on K. pneumoniae ATCC 33495, the “MIC K. pneumoniae ATCC 33495” value was found to be 2 µg/mL (≈ 1.64 µM). In addition, the “MIC P. aeruginosa ATCC 27853” value with P. aeruginosa ATCC 27853 amounted to 2 µg/mL (≈ 1.64 µM).

In the case of `CCC(C)CC(=O)OCCSC[C@@H](N)C(=O)N[C@H](C(=O)N[C@@H](CCN)C(=O)N[C@H]1CCNC(=O)[C@H]([C@@H](C)O)NC(=O)[C@H](CCN)NC(=O)[C@H](CCN)NC(=O)[C@H](CC(C)C)NC(=O)[C@@H](Cc2ccccc2)NC(=O)[C@H](CCN)NC1=O)[C@@H](C)O` (stereo partly drawn) [Compound 97] (H-[dC](X10)T[Dab][Dab][Dab][dF]L[Dab][Dab]T; lactam 4-C), the “MIC E. coli ATCC MS8345” value in the assay with E. coli ATCC MS8345 is 16 µg/mL (≈ 13.2 µM). The “MIC E. coli ATCC 25922” value in the assay with E. coli ATCC 25922 was 1 µg/mL (≈ 0.827 µM). Besides, in the assay with A. baumannii ATCC 19606, the “MIC A. baumannii ATCC 19606” value was 4 µg/mL (≈ 3.31 µM). Further, in assay [1], the “MIC K. pneumoniae ATCC 700603” value worked out at 2 µg/mL (≈ 1.65 µM). Further, the “MIC K. pneumoniae ATCC MS6671” value in assay [2] is above 32 µg/mL. The “MIC K. pneumoniae ATCC 33495” value in the assay with K. pneumoniae ATCC 33495 was 1 µg/mL (≈ 0.827 µM). In addition, the “MIC P. aeruginosa ATCC 27853” value in the assay with P. aeruginosa ATCC 27853 turned out to be 2 µg/mL (≈ 1.65 µM).

Consider `CCCCCCCCCC(=O)OCCSC[C@H](N)C(=O)N[C@@H](CCN)C(=O)N[C@H](C(=O)N[C@@H](CCN)C(=O)N[C@H]1CCNC(=O)[C@H]([C@@H](C)O)NC(=O)[C@H](CCN)NC(=O)[C@H](CCN)NC(=O)[C@H](CC(C)C)NC(=O)[C@@H](Cc2ccccc2)NC(=O)[C@H](CCN)NC1=O)[C@@H](C)O` [Compound 31] (H-C(Ethyl(2-decanoyloxy))[Dab]T[Dab][Dab][Dab][dF]L[Dab][Dab]T; lactam 5-C), for which, in the assay on E. coli ATCC MS8345, the “MIC E. coli ATCC MS8345” value was in the range of 2 to 4 µg/mL. Further, in the assay with E. coli ATCC 25922, the “MIC E. coli ATCC 25922” value was found to be 2 µg/mL (≈ 1.47 µM). In the assay on A. baumannii ATCC 19606, the “MIC A. baumannii ATCC 19606” value came out at 1 µg/mL (≈ 0.733 µM). Moreover, the “MIC K. pneumoniae ATCC 700603” value in assay [1] amounted to 4 µg/mL (≈ 2.93 µM). For the same compound, the “MIC K. pneumoniae ATCC MS6671” value in assay [2] is above 32 µg/mL. Moreover, the “MIC K. pneumoniae ATCC 33495” value with K. pneumoniae ATCC 33495 came out at 0.5 µg/mL (≈ 0.366 µM). In addition, in the assay with P. aeruginosa ATCC 27853, the “MIC P. aeruginosa ATCC 27853” value turned out to be 1 µg/mL (≈ 0.733 µM).

Turning to `CCCC(=O)OCCSC[C@@H]1NC(=O)[C@@H](Cc2ccccc2)NC(=O)[C@H](CCN)NC(=O)[C@@H](NC(=O)[C@H](CCN)NC(=O)[C@@H](NC(=O)[C@H](CCN)NC(=O)[C@@H](N)CSCCOC(=O)CCC)[C@@H](C)O)CCNC(=O)[C@H]([C@@H](C)O)NC(=O)[C@H](CCN)NC(=O)[C@H](CCN)NC1=O` [Compound 36] (H-C(Ethyl(2-butanoyloxy))[Dab]T[Dab][Dab][Dab][dF]C(Ethyl(2-butanoyloxy))[Dab][Dab]T; lactam 5-C), the “MIC E. coli ATCC MS8345” value in the assay with E. coli ATCC MS8345 was 32 µg/mL (≈ 23.1 µM). Also, in the assay with E. coli ATCC 25922, the “MIC E. coli ATCC 25922” value amounted to 0.25 µg/mL (≈ 0.181 µM). Moreover, the “MIC A. baumannii ATCC 19606” value in the assay with A. baumannii ATCC 19606 stood at 16 µg/mL (≈ 11.6 µM). In addition, the “MIC K. pneumoniae ATCC 700603” value in assay [1] fell in the range of 0.25 to 0.5 µg/mL. Further, the “MIC K. pneumoniae ATCC MS6671” value in assay [2] is above 32 µg/mL. Besides, the “MIC K. pneumoniae ATCC 33495” value with K. pneumoniae ATCC 33495 is 0.25 to 0.5 µg/mL. In addition, the “MIC P. aeruginosa ATCC 27853” value in the assay on P. aeruginosa ATCC 27853 was determined as 16 µg/mL (≈ 11.6 µM).

Regarding `CCCCC(=O)OCCSC[C@@H](N)C(=O)N[C@H](C(=O)N[C@@H](CCN)C(=O)N[C@H]1CCNC(=O)[C@H]([C@@H](C)O)NC(=O)[C@H](CCN)NC(=O)[C@H](CCN)NC(=O)[C@H](CC(C)C)NC(=O)[C@@H](Cc2ccccc2)NC(=O)[C@H](CCN)NC1=O)[C@@H](C)O` [Compound 90] (H-[dC](X13)T[Dab][Dab][Dab][dF]L[Dab][Dab]T; lactam 4-C), the “MIC E. coli ATCC MS8345” value against E. coli ATCC MS8345 was above 32 µg/mL. In the assay with E. coli ATCC 25922, the “MIC E. coli ATCC 25922” value was found to be 4 µg/mL (≈ 3.35 µM). The “MIC A. baumannii ATCC 19606” value against A. baumannii ATCC 19606 is above 16 µg/mL. In addition, the “MIC K. pneumoniae ATCC 700603” value in assay [1] is 4 µg/mL (≈ 3.35 µM). Further, the “MIC K. pneumoniae ATCC MS6671” value in assay [2] is above 32 µg/mL. In addition, the “MIC K. pneumoniae ATCC 33495” value with K. pneumoniae ATCC 33495 was 2 µg/mL (≈ 1.67 µM). In addition, in the assay with P. aeruginosa ATCC 27853, the “MIC P. aeruginosa ATCC 27853” value was 4 µg/mL (≈ 3.35 µM).

`C[C@@H](O)[C@@H]1NC(=O)[C@H](CCN)NC(=O)[C@H](CCN)NC(=O)[C@H](CSCCOC(=O)c2ccc(C(C)(C)C)cc2)NC(=O)[C@@H](Cc2ccccc2)NC(=O)[C@H](CCN)NC(=O)[C@@H](NC(=O)[C@H](CCN)NC(=O)[C@@H](NC(=O)[C@H](CCN)NC(=O)[C@@H](N)CSCCOC(=O)c2ccc(C(C)(C)C)cc2)[C@@H](C)O)CCNC1=O` [Compound 40] (H-C(CH2CH2OBz(4-tBu))[Dab]T[Dab][Dab][Dab][dF]C(CH2CH2OBz(4-tBu))[Dab][Dab]T; lactam 5-C): the “MIC E. coli ATCC MS8345” value against E. coli ATCC MS8345 was determined as 4 µg/mL (≈ 2.56 µM). The “MIC E. coli ATCC 25922” value in the assay with E. coli ATCC 25922 lay within 2 to 4 µg/mL. In the assay with A. baumannii ATCC 19606, the “MIC A. baumannii ATCC 19606” value was 2 µg/mL (≈ 1.28 µM). Also, in assay [1], the “MIC K. pneumoniae ATCC 700603” value is 2 µg/mL (≈ 1.28 µM). For the same compound, the “MIC K. pneumoniae ATCC MS6671” value in assay [2] was above 32 µg/mL. Also, the “MIC K. pneumoniae ATCC 33495” value against K. pneumoniae ATCC 33495 is 2 to 4 µg/mL. Further, the “MIC P. aeruginosa ATCC 27853” value with P. aeruginosa ATCC 27853 was determined as 2 µg/mL (≈ 1.28 µM).
